Among the data in PubChem BioAssay (NCI) are TGI values, retold here.

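Cultured in 96-well plates, cells were exposed to test compound for 48 hours across five concentrations. TGI: total growth inhibition.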

Test systems include COLO 205 colon; DU-145 prostate; EKVX NSCLC; HCC-2998 colon; KM12 colon; MDA-N; NCI-H522 lung; RXF 393 renal; SF-295 CNS; SK-MEL-2 melanoma; CCRF-CEM leukemia.
Common to all, as to test: inhibition of tumour cell growth, NCI panel, 48 h

As to `COc1cc(/C=C/C(C)=O)ccc1OP(=O)(O)O`, the TGI with COLO 205 colon, with DU-145 prostate, in the assay on EKVX NSCLC, in the assay with HCC-2998 colon, in the assay with KM12 colon and with MDA-N was more than 100 µM in each case. The TGI in the assay on NCI-H522 lung, with RXF 393 renal, in the assay with SF-295 CNS and in the assay with SK-MEL-2 melanoma was more than 100 µM each time.
As for `COc1ccc(C2SCC(=O)N2c2ccc(-c3ccc(-n4c(-c5ccccc5)nc5ccccc5c4=O)cc3)cc2)cc1` (configuration not stated), the TGI in the assay with CCRF-CEM leukemia was more than 100 µM; in the assay on COLO 205 colon, more than 100 µM; in the assay on DU-145 prostate, more than 100 µM; with EKVX NSCLC, more than 100 µM; in the assay with HCC-2998 colon, more than 100 µM; in the assay with KM12 colon, 79.8 µM. Further, the TGI was more than 100 µM in the assay with MDA-N, more than 100 µM in the assay on NCI-H522 lung, more than 100 µM with SF-295 CNS and 86.7 µM in the assay with SK-MEL-2 melanoma.
`COc1cc(OC)c2c(c1OC)OCC(Cc1ccc(O)cc1)C2=O` (configuration not stated): the TGI in the assay with CCRF-CEM leukemia, with COLO 205 colon, in the assay with DU-145 prostate, in the assay on KM12 colon, with MDA-N and in the assay with NCI-H522 lung was more than 25 µM throughout. In addition, the TGI in the assay with RXF 393 renal, with SF-295 CNS and in the assay on SK-MEL-2 melanoma was more than 25 µM in each case.
As for `CC[N+]1(C)CCC(O)(c2ccc(Cl)cc2)C(C(=O)c2ccc(Cl)cc2)C1` (configuration not stated), the TGI in the assay with CCRF-CEM leukemia was found to be 19.7 µM; in the assay on COLO 205 colon it was 23.8 µM; in the assay with DU-145 prostate it was 34.4 µM; in the assay with HCC-2998 colon it was 36.3 µM; with KM12 colon, 31.7 µM; in the assay on MDA-N, 41.3 µM. Further, the TGI with NCI-H522 lung came to 3.51 µM; in the assay with RXF 393 renal it was 27.4 µM.
For the molecule `COc1ccc(/C=C2\CSC/C(=C\c3ccc(OC)c(OC)c3OC)C2=O)c(OC)c1OC`, the TGI with CCRF-CEM leukemia, in the assay on COLO 205 colon, with DU-145 prostate, in the assay with EKVX NSCLC, in the assay on KM12 colon and in the assay with MDA-N was more than 100 µM throughout. Also, the TGI in the assay with RXF 393 renal was 53.7 µM; with SF-295 CNS, 99.6 µM; with SK-MEL-2 melanoma, more than 100 µM.
With `COc1cc(N=NN(C)C)c(C(C)c2c3cc(OC)c(OC)cc3cc[n+]2C)cc1OC` (configuration not stated), the TGI in the assay on CCRF-CEM leukemia is more than 100 µM; in the assay with COLO 205 colon, 34.4 µM; in the assay on DU-145 prostate, more than 100 µM; in the assay on EKVX NSCLC, more than 100 µM; in the assay on HCC-2998 colon, more than 100 µM; with KM12 colon it was 54.6 µM. Moreover, the TGI is more than 100 µM with MDA-N, more than 100 µM in the assay with RXF 393 renal, more than 100 µM in the assay with SF-295 CNS and 87.5 µM in the assay on SK-MEL-2 melanoma.
As to `C=C=C(C)[Si](C)(C)C`, the TGI in the assay on CCRF-CEM leukemia, in the assay on COLO 205 colon, in the assay on DU-145 prostate, in the assay on HCC-2998 colon, in the assay on KM12 colon and with MDA-N was more than 100 µM each time. Further, the TGI with NCI-H522 lung, with RXF 393 renal, in the assay on SF-295 CNS and in the assay on SK-MEL-2 melanoma was more than 100 µM in each case.
For `O=P(O)(O)C(O)/C=C/c1ccccc1` (configuration not stated), the TGI in the assay with COLO 205 colon, in the assay on DU-145 prostate, in the assay with EKVX NSCLC, in the assay with HCC-2998 colon, with KM12 colon and with MDA-N was more than 100 µM throughout. Also, the TGI in the assay on NCI-H522 lung, in the assay on RXF 393 renal, with SF-295 CNS and in the assay on SK-MEL-2 melanoma was more than 100 µM each time.
In the case of `O=C1c2cc3ccccc3cc2C2(c3ccc(Cl)cc3)N[C@H]3CCCC[C@@H]3N12` (some centres not stated), the TGI was more than 100 µM with CCRF-CEM leukemia; more than 100 µM with COLO 205 colon; 60.2 µM in the assay with DU-145 prostate; 26.8 µM in the assay on EKVX NSCLC; 48.2 µM with KM12 colon; 57.8 µM in the assay on MDA-N. Also, the TGI with RXF 393 renal was 24.2 µM; in the assay with SF-295 CNS it was 32.4 µM; with SK-MEL-2 melanoma, 35.4 µM.
Turning to `CC1(c2ccc(Cl)cc2)CC(c2ccc(Cl)cc2)=C(C#N)C(=C(C#N)C#N)N1` (configuration not stated), the TGI with CCRF-CEM leukemia was more than 100 µM; in the assay with COLO 205 colon, 28.7 µM; in the assay on DU-145 prostate it was 28.2 µM; in the assay with EKVX NSCLC it was 35.6 µM; with HCC-2998 colon, 29.5 µM; in the assay with KM12 colon, 40.3 µM. The TGI came to 38.5 µM in the assay with MDA-N, 32.1 µM in the assay with RXF 393 renal, 32.6 µM in the assay with SF-295 CNS and 63.4 µM with SK-MEL-2 melanoma.
With `CCOP(=O)(Nc1ccc(-c2ccccc2)cc1)OCC`, the TGI with COLO 205 colon, in the assay with DU-145 prostate, in the assay on EKVX NSCLC, with HCC-2998 colon, in the assay on KM12 colon and in the assay with MDA-N was more than 100 µM in each case. Besides, the TGI in the assay on NCI-H522 lung, in the assay on RXF 393 renal, in the assay on SF-295 CNS and with SK-MEL-2 melanoma was more than 100 µM in each case.
Regarding `Cc1ccc2c(c1)NC(=O)CCSSCCC(=O)N2`, the TGI in the assay with CCRF-CEM leukemia, in the assay with COLO 205 colon, in the assay on DU-145 prostate, with EKVX NSCLC, with KM12 colon and with MDA-N was more than 100 µM each time. In addition, the TGI in the assay with NCI-H522 lung, with RXF 393 renal, with SF-295 CNS and in the assay with SK-MEL-2 melanoma was more than 100 µM throughout.
As for `O=C(O)CSc1cc(-c2ccccc2)nc2ccccc12`, the TGI in the assay with DU-145 prostate was more than 100 µM; in the assay on EKVX NSCLC it was more than 100 µM; with KM12 colon, more than 100 µM; in the assay on MDA-N, more than 100 µM; with NCI-H522 lung, 70.9 µM; with RXF 393 renal, 94.8 µM. Further, the TGI in the assay on SF-295 CNS and with SK-MEL-2 melanoma was more than 100 µM each time.
In the case of `CC(=O)Nc1ncc(Sc2ccccc2C(=O)O)s1`, the TGI with CCRF-CEM leukemia, in the assay with COLO 205 colon, in the assay with DU-145 prostate, with EKVX NSCLC, with KM12 colon and in the assay with MDA-N was more than 100 µM in each case. Besides, the TGI in the assay with RXF 393 renal, in the assay on SF-295 CNS and in the assay on SK-MEL-2 melanoma was more than 100 µM in each case.
